Measured values from patent US20160296529A1, “AMINOTRIAZOLOPYRIDINE FOR USE IN THE TREATMENT OF INFLAMMATION, AND PHARMACEUTICAL COMPOSITIONS THEREOF” (priority 2012, published 2016).
Like-named read-outs stand apart in the source and are kept apart here.

What was measured:
rat CIA model = test: CIA model 2 (rat collagen induced arthritis, ankle diameter); type: in vivo, Female Lewis rats
From the text: Female Lewis rats (n=76) that weighed 165-194 grams (mean approx. 178 g) on arthritis day 0 were obtained from Charles River Laboratories, Inc., Wilmington, Mass., (ref#393739). Animals were identified by a distinct number at the base of the tail delineating group and animal number.
Upon arrival, animals were housed 4/cage in shoe-box polycarbonate cages and acclimated for 8 days prior to being immunized with type II collagen. No concurrent medications were given.
During the acclimation and study periods, animals were housed in a laboratory environment with temperatures ranging 19-25° […]. and relative humidity of 30%-70%. Automatic timers provided 12 h of light and 12 h of dark. Animals were allowed access ad libitum to food and water.
Acclimated female Lewis rats were anesthetized with Isoflurane and receive subcutaneous/intradermal (SC/ID) injections with 300 μL of Freund's Incomplete Adjuvant (Difco, Detroit, Mich.) containing 2 mg/mL bovine type II collagen (Elastin Products, Owensville, Mo.) at the base of the tail and 2 sites on the back on day −9 and on day −3.
Collagen was prepared by making a 4 mg/mL solution in 0.01N Acetic acid. Equal volumes of collagen and Freund's incomplete adjuvant, were emulsified by hand mixing until a bead of this material holds its form when placed in water. Each animal received 300 μL of the mixture on each occasion divided over 3 subcutaneous sites on back.
On study day 1, onset of arthritis occurred and animals were randomized into treatment groups. After randomization, all cages were labelled with protocol number, group number, and animal numbers. Randomization into each group was done after ankle joint swelling was obviously established and there was good evidence of bilateral disease.
Animals with established type II collagen arthritis were treated daily (QD) by the oral (PO) route for 13 days with vehicle (methylcellulose 0.5% (w/v)), or with active compound(s) prepared in methylcellulose, 0.5% (w/v). Oral dosing was initiated on arthritis day 1 and continued daily (QD at 24 h intervals) through day 13. Animals were terminated on arthritis day 14.
The severity of the arthritis was evaluated by measuring the diameter of both ankles on the animals. Caliper measurements of ankles were taken every day beginning on day 0, with a Digitrix II micrometer (Fowler & NSK). Baseline measurements were taken using one ankle with values rounded to one-thousandth of an inch. Measurements were confirmed as clinically normal (0.260-0.264 in) by comparison with historical values for rats based on a range of body weights. Baseline measurements were then applied to both ankles, and these values remain with the animal so long as the ankle was clinically normal with good definition of all the ankle bones and no evidence of inflammation. Animals were terminated on day 14.

[1] = Single dose pharmacokinetics in animals, rabbit; type: in vivo, New Zealand White rabbits
Experimental: Pharmacokinetic studies were performed in various animal species dosed with the compound according to Formula II to determine the exposure to the compound according to Formula I as well as its apparent terminal half life (T1/2), when possible.
Sprague-Dawley rats (male, 200-250 g), CD1 mice (male, 25-30 g), Beagle dogs (male, 9-10 kg), Göttingen minipigs (male, […]) were acclimatized for at least 7 days before treatment and were kept on a 12 hr light/dark cycle (07 h00-19 h00).
Temperature was maintained at approximately 22° C., and food and water were provided ad libitum. […]
Blood samples were collected over a 24-h period via the jugular vein (dog, minipig), ear blood vessel (rabbit), cardiac puncture (mouse) or retro-orbital sinus (rat) with lithium heparin as anti-coagulant. Whole blood samples were centrifuged and the resulting plasma samples were stored at −20° C. pending analysis.
Plasma concentrations of the compound according to Formula I and of the compound according to Formula II were determined by an LC-MS/MS method with a limit of quantification ≦10.0 ng/mL for both Formula I and Formula II for all species.
Pharmacokinetic parameters were calculated using a statistical analysis package (WinNonLin (Pharsight, Sunnyvale, Calif.: CA 94086, USA).

For `Nc1nc2cccc(-c3ccc(CN4CCS(=O)(=O)CC4)cc3)n2n1` [Formula I, 5-[4-(1,1-Dioxothiomorpholin-4-ylmethyl)-phenyl]-[1,2,4]triazolo[1,5-a]pyridin-2-ylamine], the “significance to vehicle control (ANOVA) in the CIA second model” value (rat CIA model; group G: Formula I 25 mg/kg PO QD) was “mg/kg (*) (((*) = p ≦ 0.05 ANOVA to vehicle control))”, the ankle diameter (rat CIA model; group G: Formula I 25 mg/kg PO QD, day 0) was 0.2629 inches and the ankle diameter (rat CIA model; group G: Formula I 25 mg/kg PO QD, day 1) was 0.2717 inches. For the same molecule, the ankle diameter (rat CIA model; group G: Formula I 25 mg/kg PO QD, day 2) was 0.2747 inches, the ankle diameter (rat CIA model; group G: Formula I 25 mg/kg PO QD, day 3) was 0.2826 inches and the ankle diameter (rat CIA model; group G: Formula I 25 mg/kg PO QD, day 4) was 0.2892 inches. It also gave an ankle diameter (rat CIA model; group G: Formula I 25 mg/kg PO QD, day 5) of 0.2973 inches, an ankle diameter (rat CIA model; group G: Formula I 25 mg/kg PO QD, day 6) of 0.3064 inches and an ankle diameter (rat CIA model; group G: Formula I 25 mg/kg PO QD, day 7) of 0.3108 inches. It also gave an ankle diameter (rat CIA model; group G: Formula I 25 mg/kg PO QD, day 8) of 0.3150 inches, an ankle diameter (rat CIA model; group G: Formula I 25 mg/kg PO QD, day 9) of 0.3089 inches and an ankle diameter (rat CIA model; group G: Formula I 25 mg/kg PO QD, day 10) of 0.3046 inches. The ankle diameter (rat CIA model; group G: Formula I 25 mg/kg PO QD, day 11) was 0.3025 inches, the ankle diameter (rat CIA model; group G: Formula I 25 mg/kg PO QD, day 12) was 0.3006 inches and the ankle diameter (rat CIA model; group G: Formula I 25 mg/kg PO QD, day 13) was 0.2996 inches. For the same molecule, the ankle diameter (rat CIA model; group G: Formula I 25 mg/kg PO QD, day 14) was 0.3016 inches, the “significance to vehicle control (ANOVA) in the CIA second model” value (rat CIA model; group H: Formula I 50 mg/kg PO QD) was “mg/kg (*) (((*) = p ≦ 0.05 ANOVA to vehicle control))” and the ankle diameter (rat CIA model; group H: Formula I 50 mg/kg PO QD, day 0) was 0.2624 inches. For the same molecule, the ankle diameter (rat CIA model; group H: Formula I 50 mg/kg PO QD, day 1) was 0.2718 inches, the ankle diameter (rat CIA model; group H: Formula I 50 mg/kg PO QD, day 2) was 0.2705 inches and the ankle diameter (rat CIA model; group H: Formula I 50 mg/kg PO QD, day 3) was 0.2814 inches. It also gave an ankle diameter (rat CIA model; group H: Formula I 50 mg/kg PO QD, day 4) of 0.2886 inches, an ankle diameter (rat CIA model; group H: Formula I 50 mg/kg PO QD, day 5) of 0.2970 inches and an ankle diameter (rat CIA model; group H: Formula I 50 mg/kg PO QD, day 6) of 0.3061 inches. The ankle diameter (rat CIA model; group H: Formula I 50 mg/kg PO QD, day 7) was 0.3110 inches, the ankle diameter (rat CIA model; group H: Formula I 50 mg/kg PO QD, day 8) was 0.3160 inches and the ankle diameter (rat CIA model; group H: Formula I 50 mg/kg PO QD, day 9) was 0.3085 inches. For the same molecule, the ankle diameter (rat CIA model; group H: Formula I 50 mg/kg PO QD, day 10) was 0.3032 inches, the ankle diameter (rat CIA model; group H: Formula I 50 mg/kg PO QD, day 11) was 0.3041 inches and the ankle diameter (rat CIA model; group H: Formula I 50 mg/kg PO QD, day 12) was 0.3039 inches. It also gave an ankle diameter (rat CIA model; group H: Formula I 50 mg/kg PO QD, day 13) of 0.3014 inches, an ankle diameter (rat CIA model; group H: Formula I 50 mg/kg PO QD, day 14) of 0.2999 inches and an AUC ([1]; New Zealand White, plasma, female, Formula I 125 mg/kg single oral dose, read-out: AUC) of 777 µg·h/mL. For the same molecule, the AUC ([1]; New Zealand White, plasma, female, Formula I 250 mg/kg single oral dose, read-out: AUC) was 1030 µg·h/mL, the “Ratio I/II of exposure (AUC Formula I : AUC Formula II)” value ([1]; after Formula II 20 mg/kg oral) was 0.38 and the AUC ([1]; male, New Zealand White, plasma, after Formula II 20 mg/kg oral, read-out: exposure (expressed as AUC)) was 10 µg·h/mL. The half-life ([1]; male, New Zealand White, plasma, oral, upon administration of Formula II, read-out: apparent terminal elimination half-life (converted)) was 4.6 h.
